This experiment deals with recombinant human SAE enzyme (Homo sapiens (Human), UniProt Q9UBT2). Description: SAE HTRF enzyme assay. It counts as biochemical. Particulars: for inhibition at 0.111 µM: read-out: Percent Inhibition. A digest of the protocol:
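This HTRF format monitors Sumo-Flag–Ubc9-GST thioester formation catalysed by 0.11 nM human SAE with 0.5 μM ATP over 105 min at 24° C. Inhibition is expressed at a single concentration or as IC50.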

Setting [1] is: SAE inhibition at compound concentration 0.111 μM.
The mark [2] stands for this setting: SAE inhibition, class symbols, legend in nM.

recombinant human SAE enzyme, sequence (Q9UBT2 whole entry): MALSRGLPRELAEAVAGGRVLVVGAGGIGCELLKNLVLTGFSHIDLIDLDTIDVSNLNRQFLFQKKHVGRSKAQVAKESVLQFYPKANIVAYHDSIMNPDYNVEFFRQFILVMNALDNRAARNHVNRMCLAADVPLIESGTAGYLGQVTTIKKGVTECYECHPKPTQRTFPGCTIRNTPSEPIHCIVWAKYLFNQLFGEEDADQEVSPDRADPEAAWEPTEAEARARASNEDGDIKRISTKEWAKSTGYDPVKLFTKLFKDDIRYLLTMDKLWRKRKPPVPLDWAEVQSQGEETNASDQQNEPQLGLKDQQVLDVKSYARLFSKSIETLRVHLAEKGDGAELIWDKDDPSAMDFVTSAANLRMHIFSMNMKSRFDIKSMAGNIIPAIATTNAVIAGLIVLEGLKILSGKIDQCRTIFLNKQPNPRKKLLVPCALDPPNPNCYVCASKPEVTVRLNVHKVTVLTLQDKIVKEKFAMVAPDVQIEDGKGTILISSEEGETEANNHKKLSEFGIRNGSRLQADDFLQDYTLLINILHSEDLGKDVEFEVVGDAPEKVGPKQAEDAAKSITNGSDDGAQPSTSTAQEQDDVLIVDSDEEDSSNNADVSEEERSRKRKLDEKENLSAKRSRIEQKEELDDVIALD
recombinant human SAE enzyme, sequence (Q9UBE0 whole entry partner): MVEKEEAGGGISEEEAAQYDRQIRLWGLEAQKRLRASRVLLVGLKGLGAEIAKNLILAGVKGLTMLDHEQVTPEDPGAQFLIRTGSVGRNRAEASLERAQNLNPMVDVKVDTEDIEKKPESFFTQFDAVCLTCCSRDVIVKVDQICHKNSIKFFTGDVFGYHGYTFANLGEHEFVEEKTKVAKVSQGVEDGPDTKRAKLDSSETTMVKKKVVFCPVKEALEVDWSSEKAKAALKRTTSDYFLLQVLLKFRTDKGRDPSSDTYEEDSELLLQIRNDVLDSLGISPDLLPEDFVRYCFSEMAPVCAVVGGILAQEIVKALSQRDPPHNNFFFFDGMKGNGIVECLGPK

As for `Cc1sc(C(=O)c2cncnc2N[C@@H]2C[C@H](COS(N)(=O)=O)[C@@H](O)C2)cc1[C@@H]1c2cc(Cl)ccc2CCN1C` [I-306, [(1R,2S,4R)-4-[[5-[4-[(1R)-7-Chloro-2-methyl-3,4-dihydro-1H-isoquinolin-1-yl]-5-methyl-thiophene-2-carbonyl]pyrimidin-4-yl]amino]-2-hydroxy-cyclopentyl]methyl sulfamate and 2-carbonyl]pyrimidin-4-yl]amino]-2-hydroxy-cyclopentyl]methyl sulfamate], the “Percent Inhibition” value under setting [1] worked out at 98%. Further, the IC50 under setting [2] was less than 10 nM.

As to `NS(=O)(=O)OC[C@H]1C[C@@H](Nc2ncncc2C(=O)c2cc([C@@H]3OCCc4ccc(Cl)cc43)c(Cl)s2)C[C@@H]1O` (single isomer, unassigned) [I-282b, [(1R,2S,4R)-4-{[5-({5-chloro-4-[(1R)-7-chloro-3,4-dihydro-1H-isochromen-1-yl]-2-thienyl}carbonyl)pyrimidin-4-yl]amino}-2-hydroxycyclopentyl]methyl sulfamate or [(1R,2S,4R)-4-{[5-({5-chloro-4-[(1S)-7-chloro-3,4-dihydro-1H-isochromen-1-yl]-2-thienyl}carbonyl)pyrimidin-4-yl]amino}-2-hydroxycyclopentyl]methyl sulfamate], the “Percent Inhibition” value under setting [1] is recorded as 102%. Also, under setting [2], the IC50 is less than 10 nM.

`CN[C@H](c1cccc(Cl)c1)c1csc(C(=O)c2cncnc2N[C@@H]2C[C@H](COS(N)(=O)=O)[C@@H](O)C2)c1` (mixture of isomers) [I-47, [(1R,2S,4R)-4-{[5-({4-[(R)-(3-chlorophenyl)(methylamino)methyl]-2-thienyl}carbonyl)pyrimidin-4-yl]amino}-2-hydroxycyclopentyl]methyl sulfamate and [(1R,2S,4R)-4-{[5-({4-[(S)-(3-chlorophenyl)(methylamino)methyl]-2-thienyl}carbonyl)pyrimidin-4-yl]amino}-2-hydroxycyclopentyl]methyl sulfamate]: the “Percent Inhibition” value (Concentration 0.111 μM) turned out to be 97. Also, under “class symbols A/B/C”, the IC50 is less than 10 nM.

With `C=C(c1cccc(Br)c1)c1csc(C(=O)c2cncnc2N[C@@H]2C[C@H](COS(N)(=O)=O)[C@@H](O)C2)c1` [I-164, [(1R,2S,4R)-4-{[5-({4-[1-(3-Bromophenyl)vinyl]-2-thienyl}carbonyl)pyrimidin-4-yl]amino)-2-hydroxycyclopentyl]methyl sulfamate], the inhibition at 0.111 µM (Concentration 0.111 μM) is 92%. In addition, the IC50 (class symbols A/B/C) lay within 10 to 100 nM.

With `NS(=O)(=O)OC[C@H]1C[C@@H](Nc2ncncc2C(=O)c2cc([C@@]3(c4cccc(Cl)c4)CCCS3)cs2)C[C@@H]1O` (mixture of isomers) [I-209, {(1R,2S,4R)-4-[(5-{[(2S)-2-(3-chlorophenyl)-2,3,4,5-tetrahydro-2,3′-bithiophen-5′-yl]carbonyl}pyrimidin-4-yl)amino]-2-hydroxycyclopentyl}methyl sulfamate and {(1R,2S,4R)-4-[(5-{[(2R)-2-(3-chlorophenyl)-2,3,4,5-tetrahydro-2,3′-bithiophen-5′-yl]carbonyl}pyrimidin-4-yl)amino]-2-hydroxycyclopentyl}methyl sulfamate], for the setting “Concentration 0.111 μM”, the “Percent Inhibition” value worked out at 45. The IC50 (class symbols A/B/C) was 100 to 1000 nM. With `Cc1nc2n(c1C)CCO[C@@H]2c1cc(C(=O)c2cncnc2N[C@@H]2C[C@H](COS(N)(=O)=O)[C@@H](O)C2)sc1C` (mixture of isomers) [I-356, ((1R,2S,4R)-4-{(5-(4-((R)-2,3-dimethyl-6,8-dihydro-5H-imidazo[2,1-c][1,4c]oxazin-8-yl)-5-methylthiophene-2-carbonyl)pyrimidin-4-yl)amino)-2-hydroxycyclopentyl)methyl sulfamate and ((1R,2S,4R)-4-((5-4-((S)-2,3-dimethyl-6,8-dihydro-5H-imidazo[2,1-c][1,4]oxazin-8-yl)-5-methylthiophene-2-carbonyl)pyrimidin-4-yl)amino)-2-hydroxycyclopentyl)methyl sulfamate], under setting [1], the “Percent Inhibition” value was 97%. The half-maximal inhibitory concentration (IC50) under setting [2] was less than 10 nM. Turning to `NS(=O)(=O)OC[C@H]1C[C@@H](Nc2ncncc2C(=O)c2cc(Cc3ccc(Cl)cc3)cs2)C[C@@H]1O` [I-157, {(1R,2S,4R)-4-[(5-{[4-(4-chlorobenzyl)-2-thienyl]carbonyl}pyrimidin-4-yl)amino]-2-hydroxycyclopentyl}methyl sulfamate], the inhibition at 0.111 µM (Concentration 0.111 μM) is 92%. Take `Cc1oc(C(=O)c2cncnc2N[C@@H]2C[C@H](COS(N)(=O)=O)[C@@H](O)C2)cc1[C@@H]1OCCc2ccc(Cl)cc21` (single isomer, unassigned) [I-270b, {(1R,2S,4R)-4-[(5-{4-[(1R)-7-chloro-3,4-dihydro-1H-isochromen-1-yl]-5-methyl-2-furoyl}pyrimidin-4-yl)amino]-2-hydroxycyclopentyl}methyl sulfamate or {(1R,2S,4R)-4-[(5-{4-[(1S)-7-chloro-3,4-dihydro-1H-isochromen-1-yl]-5-methyl-2-furoyl}pyrimidin-4-yl)amino]-2-hydroxycyclopentyl}methyl sulfamate]: the “Percent Inhibition” value (Concentration 0.111 μM) amounted to 99. Further, the half-maximal inhibitory concentration (IC50) (class symbols A/B/C) is less than 10 nM. `Cc1sc(C(=O)c2cncnc2N[C@@H]2C[C@H](COS(N)(=O)=O)[C@@H](O)C2)cc1[C@@H]1OCCc2cccnc21` (single isomer, unassigned) [I-285b, [(1R,2S,4R)-4-{[5-({4-[(8S)-5,8-dihydro-6H-pyrano[3,4-b]pyridin-8-yl]-5-methyl-2-thienyl}carbonyl)pyrimidin-4-yl]amino}-2-hydroxycyclopentyl]methyl sulfamate or [(1R,2S,4R)-4-{[5-({4-[(8R)-5,8-dihydro-6H-pyrano[3,4-b]pyridin-8-yl]-5-methyl-2-thienyl}carbonyl)pyrimidin-4-yl]amino}-2-hydroxycyclopentyl]methyl sulfamate]: under setting [1], the “Percent Inhibition” value is recorded as 44%. For the same compound, the IC50 under setting [2] is 100 to 1000 nM. Regarding `NS(=O)(=O)OC[C@H]1C[C@@H](Nc2ncncc2C(=O)c2cc([C@@]3(C4CCCCC4)CCCO3)cs2)C[C@@H]1O` (mixture of isomers) [I-166, [(1R,2S,4R)-4-{[5-({4-[(2S)-2-cyclohexyltetrahydrofuran-2-yl]-2-thienyl}carbonyl)pyrimidin-4-yl]amino}-2-hydroxycyclopentyl]methyl sulfamate and [(1R,2S,4R)-4-{[5-({4-[(2R)-2-cyclohexyltetrahydrofuran-2-yl]-2-thienyl}carbonyl)pyrimidin-4-yl]amino}-2-hydroxycyclopentyl]methyl sulfamate], the “Percent Inhibition” value (Concentration 0.111 μM) came to 93. The 50% inhibitory concentration (IC50) (class symbols A/B/C) was 10 to 100 nM. `N[C@@H](c1cccc(Cl)c1)c1cc(C(=O)c2cncnc2N[C@@H]2C[C@H](COS(N)(=O)=O)[C@@H](O)[C@H]2O)sc1Cl` (single isomer, unassigned) [I-14a, [(1R,2R,3S,4R)-4-{[5-({4-[(S)-Amino(3-chlorophenyl)methyl]-5-chloro-2-thienyl)carbonyl)pyrimidin-4-yl]amino}-2,3-dihydroxycyclopentyl]methyl sulfamate or [(1R,2R,3S,4R)-4-{[5-({4-[(R)-Amino(3-chlorophenyl)methyl]-5-chloro-2-thienyl}carbonyl)pyrimidin-4-yl]amino}-2,3-dihydroxycyclopentyl]methyl sulfamate]: the “Percent Inhibition” value (Concentration 0.111 μM) turned out to be 101. Also, the half-maximal inhibitory concentration (IC50) (class symbols A/B/C) is less than 10 nM. Consider `Cc1oc(C(=O)c2cncnc2N[C@@H]2C[C@H](COS(N)(=O)=O)[C@@H](O)C2)cc1[C@@H]1OCCc2ccc(Cl)cc21` (single isomer, unassigned) [I-270a, {(1R,2S,4R)-4-[(5-{4-[(1R)-7-chloro-3,4-dihydro-1H-isochromen-1-yl]-5-methyl-2-furoyl}pyrimidin-4-yl)amino]-2-hydroxycyclopentyl}methyl sulfamate or {(1R,2S,4R)-4-[(5-{4-[(1S)-7-chloro-3,4-dihydro-1H-isochromen-1-yl]-5-methyl-2-furoyl}pyrimidin-4-yl)amino]-2-hydroxycyclopentyl}methyl sulfamate], for which the “Percent Inhibition” value (Concentration 0.111 μM) was 79. The IC50 (class symbols A/B/C) fell in the range of 10 to 100 nM.

Consider `Cc1sc(C(=O)c2cncnc2N[C@@H]2C[C@H](COS(N)(=O)=O)[C@@H](O)C2)cc1[S@+]([O-])c1cccc(Cl)c1` (single isomer, unassigned) [I-28a, [(1R,2S,4R)-4-{[5-({4-[(R)-(3-chlorophenyl)sulfinyl]-5-methyl-2-thienyl}carbonyl)pyrimidin-4-yl]amino}-2-hydroxycyclopentyl]methyl sulfamate or [(1R,2S,4R)-4-{[5-({4-[(S)-(3-chlorophenyl)sulfinyl]-5-methyl-2-thienyl}carbonyl)pyrimidin-4-yl]amino}-2-hydroxycyclopentyl]methyl sulfamate], for which the “Percent Inhibition” value (Concentration 0.111 μM) came to 66. Also, the concentration for half-maximal inhibition (IC50) (class symbols A/B/C) fell in the range of 10 to 100 nM.

With `C=C(C)[C@@H](O)c1coc(C(=O)c2cncnc2N[C@@H]2C[C@H](COS(N)(=O)=O)[C@@H](O)C2)c1.C=C(C)[C@H](O)c1coc(C(=O)c2cncnc2N[C@@H]2C[C@H](COS(N)(=O)=O)[C@@H](O)C2)c1` (mixture of isomers) [I-197, {(1R,2S,4R)-2-Hydroxy-4-[(5-{4-[(1S)-1-hydroxy-2-methylprop-2-en-1-yl]-2-furoyl}pyrimidin-4-yl)amino]cyclopentyl)methyl sulfamate and {(1R,2S,4R)-2-Hydroxy-4-[(5-{4-[(1R)-1-hydroxy-2-methylprop-2-en-1-yl]-2-furoyl}pyrimidin-4-yl)amino]cyclopentyl}methyl sulfamate], the “Percent Inhibition” value (Concentration 0.111 μM) was determined as 69. Moreover, the concentration for half-maximal inhibition (IC50) (class symbols A/B/C) lay within 10 to 100 nM. `NS(=O)(=O)OC[C@H]1C[C@@H](Nc2ncncc2C(=O)c2cc(CNCc3ccccc3)cs2)C[C@@H]1O` [I-222, [(1R,2S,4R)-4-{[5-({4-(Benzylamino)methyl]-2-thienyl)carbonyl)pyrimidin-4-yl]amino}-2-hydroxycyclopentyl]methyl sulfamate]: the “Percent Inhibition” value (Concentration 0.111 μM) worked out at 31. In addition, the IC50 (class symbols A/B/C) was 100 to 1000 nM.

(Values after patent US10780090B2, “Heteroaryl compounds useful as inhibitors of SUMO activating enzyme” (Millennium Pharmaceuticals, Inc., priority 2014, dated 2020).)
